# According to patent publication US20200239530A1, “COMPOUNDS AND METHODS OF MODULATING PROTEIN DEGRADATION” (Vividion Therapeutics, Inc., priority 2017, published 2020):
# Assays:
# Assay in all cases: Competitive cysteine profiling of cell lysate with desthiobiotin iodoacetamide probe (96-well sample prep)
# Assay type in all cases: binding
# [1] = target: T1, cysteine residue illustrated in Table 1A or Table 2A (Homo sapiens, UniProt Q5VU92); conditions: UniProt Q5VU92
# T1 construct: Cells were resuspended in cold PBS on ice and sonicated with a probe sonicator to achieve lysis; endogenous in cells
# Method in brief: (§1)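 Competitive profiling: compound and lysate (5 mg/ml protein) incubated 1 h at 25 °C before a 1 h, 25 °C desthiobiotin iodoacetamide probe step. Proteins were acetone-precipitated, reduced, alkylated and trypsinized; streptavidin-captured labelled peptides were eluted for MS analysis.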
# [2] = target: T2, cysteine residue illustrated in Table 1A or Table 2A (Homo sapiens, UniProt Q7Z6J8); conditions: UniProt Q7Z6J8; KB05 100 uM
# T2 construct: Cells were resuspended in cold PBS on ice and sonicated with a probe sonicator to achieve lysis; endogenous in cells
# Method in brief: as §1
# [3] = target: T3, cysteine residue illustrated in Table 1A or Table 2A (Homo sapiens, UniProt Q86Y01); conditions: UniProt Q86Y01; 100 uM
# T3 construct: Cells were resuspended in cold PBS on ice and sonicated with a probe sonicator to achieve lysis; endogenous in cells
# Method in brief: as §1
# [4] = target: T4, cysteine residue illustrated in Table 1A or Table 2A (Homo sapiens, UniProt Q6ZT12); conditions: UniProt Q6ZT12; KB05 100 uM
# T4 construct: Cells were resuspended in cold PBS on ice and sonicated with a probe sonicator to achieve lysis; endogenous in cells
# Method in brief: as §1
# [5] = target: T5, cysteine residue illustrated in Table 1A or Table 2A (Homo sapiens, UniProt P49754); conditions: UniProt P49754; KB05 100 uM
# T5 construct: Cells were resuspended in cold PBS on ice and sonicated with a probe sonicator to achieve lysis; endogenous in cells
# Method in brief: as §1
# [6] = target: T6, cysteine residue illustrated in Table 1A or Table 2A (Homo sapiens, UniProt Q15386); conditions: UniProt Q15386; KB03 100 uM
# T6 construct: Cells were resuspended in cold PBS on ice and sonicated with a probe sonicator to achieve lysis; endogenous in cells
# Method in brief: as §1
# [7] = target: T7, cysteine residue illustrated in Table 1A or Table 2A (Homo sapiens, UniProt Q5T4S7); conditions: UniProt Q5T4S7; KB03 500 uM
# T7 construct: Cells were resuspended in cold PBS on ice and sonicated with a probe sonicator to achieve lysis; endogenous in cells
# Method in brief: as §1
# [8] = target: T8, cysteine residue illustrated in Table 1A or Table 2A (Homo sapiens, UniProt Q9UBI1); conditions: UniProt Q9UBI1; 500 uM
# T8 construct: Cells were resuspended in cold PBS on ice and sonicated with a probe sonicator to achieve lysis; endogenous in cells
# Method in brief: as §1
# [9] = target: T9, cysteine residue illustrated in Table 1A or Table 2A (Homo sapiens, UniProt Q58WW2); conditions: UniProt Q58WW2; 100 uM
# T9 construct: Cells were resuspended in cold PBS on ice and sonicated with a probe sonicator to achieve lysis; endogenous in cells
# Method in brief: as §1
# [10] = target: T10, cysteine residue illustrated in Table 1A or Table 2A (Homo sapiens, UniProt Q9H0M0); conditions: UniProt Q9H0M0; KB03 100 uM
# T10 construct: Cells were resuspended in cold PBS on ice and sonicated with a probe sonicator to achieve lysis; endogenous in cells
# Method in brief: as §1
# [11] = target: T11, cysteine residue illustrated in Table 1A or Table 2A (Homo sapiens, UniProt O95159); conditions: UniProt O95159; KB03 100 uM
# T11 construct: Cells were resuspended in cold PBS on ice and sonicated with a probe sonicator to achieve lysis; endogenous in cells
# Method in brief: as §1
# [12] = target: T12, cysteine residue illustrated in Table 1A or Table 2A (Homo sapiens, UniProt Q9NZJ0); conditions: UniProt Q9NZJ0; 500 uM
# T12 construct: Cells were resuspended in cold PBS on ice and sonicated with a probe sonicator to achieve lysis; endogenous in cells
# Method in brief: as §1
# [13] = target: T13, cysteine residue illustrated in Table 1A or Table 2A (Homo sapiens, UniProt O76080); conditions: UniProt O76080; KB03 100 uM
# T13 construct: Cells were resuspended in cold PBS on ice and sonicated with a probe sonicator to achieve lysis; endogenous in cells
# Method in brief: as §1
# T1 sequence (Q5VU92 whole entry): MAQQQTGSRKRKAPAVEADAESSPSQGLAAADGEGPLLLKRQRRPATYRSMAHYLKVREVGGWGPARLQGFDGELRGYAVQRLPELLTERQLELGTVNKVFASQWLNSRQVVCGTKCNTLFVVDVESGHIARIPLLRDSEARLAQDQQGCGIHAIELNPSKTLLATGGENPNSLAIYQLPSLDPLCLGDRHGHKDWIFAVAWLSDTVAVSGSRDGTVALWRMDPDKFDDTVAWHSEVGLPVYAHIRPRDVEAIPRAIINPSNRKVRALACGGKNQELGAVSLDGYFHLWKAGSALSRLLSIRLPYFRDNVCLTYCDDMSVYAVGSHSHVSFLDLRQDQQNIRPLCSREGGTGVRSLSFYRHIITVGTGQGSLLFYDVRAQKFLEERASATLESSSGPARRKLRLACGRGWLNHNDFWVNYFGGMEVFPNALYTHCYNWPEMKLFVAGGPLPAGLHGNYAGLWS
# T11 sequence (O95159 whole entry): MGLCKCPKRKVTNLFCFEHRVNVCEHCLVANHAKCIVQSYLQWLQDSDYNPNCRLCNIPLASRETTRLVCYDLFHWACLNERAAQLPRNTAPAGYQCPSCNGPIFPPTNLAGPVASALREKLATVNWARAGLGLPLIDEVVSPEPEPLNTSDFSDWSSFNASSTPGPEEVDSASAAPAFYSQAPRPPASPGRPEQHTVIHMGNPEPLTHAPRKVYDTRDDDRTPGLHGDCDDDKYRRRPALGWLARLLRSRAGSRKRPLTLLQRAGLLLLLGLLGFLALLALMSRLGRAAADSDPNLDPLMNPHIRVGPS
# T5 sequence (P49754 whole entry): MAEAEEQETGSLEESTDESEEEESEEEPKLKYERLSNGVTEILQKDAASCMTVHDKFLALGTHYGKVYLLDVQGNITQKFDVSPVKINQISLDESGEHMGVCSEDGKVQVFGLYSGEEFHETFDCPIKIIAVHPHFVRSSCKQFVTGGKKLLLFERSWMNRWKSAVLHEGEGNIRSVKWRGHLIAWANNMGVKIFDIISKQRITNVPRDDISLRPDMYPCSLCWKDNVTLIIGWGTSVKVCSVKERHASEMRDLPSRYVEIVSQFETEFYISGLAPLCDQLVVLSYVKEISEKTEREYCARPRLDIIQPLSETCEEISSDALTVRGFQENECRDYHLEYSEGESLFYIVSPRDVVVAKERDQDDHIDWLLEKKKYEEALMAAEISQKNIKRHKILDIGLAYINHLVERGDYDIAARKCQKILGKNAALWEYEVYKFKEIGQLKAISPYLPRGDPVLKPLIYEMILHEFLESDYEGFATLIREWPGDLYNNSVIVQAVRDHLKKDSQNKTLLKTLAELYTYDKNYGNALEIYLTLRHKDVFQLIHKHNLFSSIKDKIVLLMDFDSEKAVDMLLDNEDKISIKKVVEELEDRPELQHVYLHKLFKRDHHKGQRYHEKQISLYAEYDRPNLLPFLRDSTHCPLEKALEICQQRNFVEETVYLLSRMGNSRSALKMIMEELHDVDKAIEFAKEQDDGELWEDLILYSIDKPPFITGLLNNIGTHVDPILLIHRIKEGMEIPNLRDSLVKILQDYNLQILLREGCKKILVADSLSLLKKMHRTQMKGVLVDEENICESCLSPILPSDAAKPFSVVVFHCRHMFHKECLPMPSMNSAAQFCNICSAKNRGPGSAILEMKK
# T8 sequence (Q9UBI1 whole entry): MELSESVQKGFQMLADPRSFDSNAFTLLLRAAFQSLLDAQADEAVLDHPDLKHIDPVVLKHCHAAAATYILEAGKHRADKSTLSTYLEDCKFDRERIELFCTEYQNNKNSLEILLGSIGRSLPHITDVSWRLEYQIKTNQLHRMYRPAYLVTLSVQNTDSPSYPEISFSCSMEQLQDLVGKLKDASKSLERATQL
# T10 sequence (Q9H0M0 whole entry): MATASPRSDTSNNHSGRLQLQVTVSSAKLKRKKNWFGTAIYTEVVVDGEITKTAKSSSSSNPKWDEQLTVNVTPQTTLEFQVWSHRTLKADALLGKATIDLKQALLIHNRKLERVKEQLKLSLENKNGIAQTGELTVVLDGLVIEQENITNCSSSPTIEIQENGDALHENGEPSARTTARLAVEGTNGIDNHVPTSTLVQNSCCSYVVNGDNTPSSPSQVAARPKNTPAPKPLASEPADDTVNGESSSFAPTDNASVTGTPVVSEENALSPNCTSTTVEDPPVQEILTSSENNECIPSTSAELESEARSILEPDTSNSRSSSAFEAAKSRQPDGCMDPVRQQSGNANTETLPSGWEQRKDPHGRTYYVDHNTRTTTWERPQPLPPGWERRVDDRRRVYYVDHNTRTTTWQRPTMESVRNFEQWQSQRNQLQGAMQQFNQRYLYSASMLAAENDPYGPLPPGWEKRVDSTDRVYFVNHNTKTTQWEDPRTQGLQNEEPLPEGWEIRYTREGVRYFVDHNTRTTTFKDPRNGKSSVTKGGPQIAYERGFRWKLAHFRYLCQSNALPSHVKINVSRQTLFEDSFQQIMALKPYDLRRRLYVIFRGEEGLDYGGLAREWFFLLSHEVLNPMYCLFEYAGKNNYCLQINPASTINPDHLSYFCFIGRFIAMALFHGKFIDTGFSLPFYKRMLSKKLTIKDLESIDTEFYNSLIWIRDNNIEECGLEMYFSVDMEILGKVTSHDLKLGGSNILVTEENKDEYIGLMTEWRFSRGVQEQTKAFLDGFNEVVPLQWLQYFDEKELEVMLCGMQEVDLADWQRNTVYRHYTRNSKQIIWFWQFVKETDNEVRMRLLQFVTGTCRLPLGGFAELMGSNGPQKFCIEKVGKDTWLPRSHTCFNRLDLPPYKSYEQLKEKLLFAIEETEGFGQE
# T2 sequence (Q7Z6J8 whole entry): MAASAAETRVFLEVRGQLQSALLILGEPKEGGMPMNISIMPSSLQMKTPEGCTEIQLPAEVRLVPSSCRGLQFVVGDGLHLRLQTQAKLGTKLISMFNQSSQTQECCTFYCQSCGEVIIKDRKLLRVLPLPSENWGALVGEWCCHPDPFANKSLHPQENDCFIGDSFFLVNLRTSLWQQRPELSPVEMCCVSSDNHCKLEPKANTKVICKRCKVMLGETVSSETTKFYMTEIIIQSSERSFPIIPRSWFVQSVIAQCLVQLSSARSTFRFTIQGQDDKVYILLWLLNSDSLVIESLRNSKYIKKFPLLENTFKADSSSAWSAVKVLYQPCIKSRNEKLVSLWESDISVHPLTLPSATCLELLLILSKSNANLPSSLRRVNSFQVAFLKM
# T9 sequence (Q58WW2 whole entry): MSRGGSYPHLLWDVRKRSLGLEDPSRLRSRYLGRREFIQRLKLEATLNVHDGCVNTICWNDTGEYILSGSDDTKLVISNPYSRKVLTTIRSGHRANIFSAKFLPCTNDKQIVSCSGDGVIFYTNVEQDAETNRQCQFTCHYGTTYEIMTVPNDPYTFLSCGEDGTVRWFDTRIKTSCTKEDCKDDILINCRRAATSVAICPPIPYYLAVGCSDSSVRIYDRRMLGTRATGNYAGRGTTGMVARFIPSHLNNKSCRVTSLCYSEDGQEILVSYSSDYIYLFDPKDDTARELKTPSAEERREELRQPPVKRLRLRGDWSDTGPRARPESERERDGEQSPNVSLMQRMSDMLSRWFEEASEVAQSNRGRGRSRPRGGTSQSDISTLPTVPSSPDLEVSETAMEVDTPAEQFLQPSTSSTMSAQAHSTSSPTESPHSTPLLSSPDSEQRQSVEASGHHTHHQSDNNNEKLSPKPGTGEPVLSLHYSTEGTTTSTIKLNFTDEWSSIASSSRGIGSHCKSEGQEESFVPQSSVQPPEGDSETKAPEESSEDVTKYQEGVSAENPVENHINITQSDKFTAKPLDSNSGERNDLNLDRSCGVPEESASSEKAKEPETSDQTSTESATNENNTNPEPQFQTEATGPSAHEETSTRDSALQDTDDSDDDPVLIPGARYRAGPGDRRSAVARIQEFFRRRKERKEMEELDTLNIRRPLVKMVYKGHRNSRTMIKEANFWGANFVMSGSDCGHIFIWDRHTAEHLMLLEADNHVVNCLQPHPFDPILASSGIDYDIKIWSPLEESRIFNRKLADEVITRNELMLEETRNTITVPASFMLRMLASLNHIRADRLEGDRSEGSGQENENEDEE
# T3 sequence (Q86Y01 whole entry): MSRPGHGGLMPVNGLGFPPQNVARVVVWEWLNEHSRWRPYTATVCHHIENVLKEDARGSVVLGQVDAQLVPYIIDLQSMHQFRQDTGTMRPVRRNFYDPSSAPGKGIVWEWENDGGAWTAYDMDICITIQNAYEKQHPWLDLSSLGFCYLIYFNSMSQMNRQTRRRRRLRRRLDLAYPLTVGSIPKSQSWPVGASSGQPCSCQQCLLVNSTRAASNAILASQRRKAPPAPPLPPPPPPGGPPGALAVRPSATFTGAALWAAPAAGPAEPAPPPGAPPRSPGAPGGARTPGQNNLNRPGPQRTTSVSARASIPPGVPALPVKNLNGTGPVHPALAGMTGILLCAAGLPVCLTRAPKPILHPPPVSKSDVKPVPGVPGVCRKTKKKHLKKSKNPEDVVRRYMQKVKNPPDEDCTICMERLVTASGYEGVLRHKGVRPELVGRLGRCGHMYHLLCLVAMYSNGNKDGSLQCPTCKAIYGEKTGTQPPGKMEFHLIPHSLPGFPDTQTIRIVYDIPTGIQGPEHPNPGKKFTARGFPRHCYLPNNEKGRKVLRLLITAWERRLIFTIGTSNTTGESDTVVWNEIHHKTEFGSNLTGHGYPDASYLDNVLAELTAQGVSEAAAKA
# T13 sequence (O76080 whole entry): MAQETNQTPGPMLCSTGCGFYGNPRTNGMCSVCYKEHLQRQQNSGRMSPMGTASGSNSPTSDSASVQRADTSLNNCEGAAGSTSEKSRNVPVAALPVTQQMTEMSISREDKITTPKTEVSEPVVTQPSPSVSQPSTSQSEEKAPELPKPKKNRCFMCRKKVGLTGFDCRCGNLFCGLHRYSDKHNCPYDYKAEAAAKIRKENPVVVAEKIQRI
smiles,measurement,setting,value
COc1ccc2c(c1)CCCN2C(=O)CCl [KB02],KB02_100 uM_percent_inhibition,[1]; 100 uM,25%
same,KB02_500 uM_percent_inhibition,[1]; 500 uM,29%
C=CC(=O)N(c1ccccc1)c1ccc(Br)cc1 [KB05],KB05_100 uM_percent_inhibition,[2],13%
same,KB05_100 uM_percent_inhibition,[3],17%
same,KB05_100 uM_percent_inhibition,[4],41%
same,KB05_100 uM_percent_inhibition,[5],10%
O=C(CCl)Nc1cc(C(F)(F)F)cc(C(F)(F)F)c1 [KBO3],KB03_100 uM_percent_inhibition,[6],16%
same,KB03_500 uM_percent_inhibition,[7],69%
same,KB03_500 uM_percent_inhibition,[8],29%
same,KB03_100 uM_percent_inhibition,[9],67%
same,KB03_100 uM_percent_inhibition,[10],61%
same,KB03_100 uM_percent_inhibition,[11],15%
same,KB03_500 uM_percent_inhibition,[12],69%
same,KB03_100 uM_percent_inhibition,[13],14%
